Source: patent EP4588485A1, “PHARMACEUTICAL COMBINATION OF FAK INHIBITOR AND TOPOISOMERASE INHIBITOR AND USE THEREOF” (Inxmed (Nanjing) Co., Ltd., priority 2022, dated 2024)

Columns and labels:
[1] = day 17 after group administration, 6 mice per group; deaths due to tumor rupture
Method: (§1) • 1. N: number of mice in each group; • 2. Dosing volume: 10 mL/kg based on the mouse body weight. If the body weight dropped by more than 15%, the administration of the animals would be stopped; When the body weight recovered to 90%, the administration would be resumed. • 3. The Etoposide dose was increased to 6 mg/kg on the 6th day after grouping and dosing;
The formulation and any modifications of this assay protocol had been assessed and approved by the IACUC of ArrayBridge. The use and welfare of assay animals were carried out in accordance with AAALAC regulations. The health status and mortality of animals were monitored daily, with routine checks including observation of tumor growth and the impact of drug treatment on the animals' daily behavior, such as activity, food and water intake (estimated by visual inspection), changes in body weight, physical signs, or any other abnormalities. The number of animal deaths and side effects in each group were recorded based on the number of animals in each group.
The assay was carried out according to the dosing regimen. During the assay, the animals' activities such as eating and drinking were observed every day, and the body weight of the animals was recorded three times a week. […]

MDA-MB-231 cells [2] = experiment: Calreticulin release and exposure by flow cytometry after FAK siRNA silencing plus topoisomerase inhibitor; assay type: cell-based; conditions: FAK siRNA 50 nM for 24 hours, then 2 µM drug for 48 hours; compared with control siRNA; Fig. 2 / Fig. 4
Method: The siRNA technology was used in the in vitro assay to reduce the expression level of FAK, and combined with Etoposide for 48 hours. Flow cytometry was used to detect the expression of Calreticulin, the main target of ICD.
MDA-MB-231 cells were transfected with control siRNA or FAK siRNA at a final concentration of 50 nM, respectively. After the transfection for 24 hours, the cells were treated with 2 µM of Etoposide for 48 hours. The cells were fluorescent stained with Calreticulin antibody, and the staining results were analyzed by flow cytometry.
The siRNA technology was used in the in vitro assay to reduce the expression level of FAK, and combined with Teniposide for 48 hours. Flow cytometry was used to detect the expression of Calreticulin, the main target of ICD.
MDA-MB-231 cells were transfected with control siRNA or FAK siRNA at a final concentration of 50 nM, respectively. After the transfection for 24 hours, the cells were treated with 2 µM Teniposide for 48 hours. The cells were fluorescent stained with Calreticulin antibody, and the staining results were analyzed by flow cytometry.

CT26 cells [3] = experiment: Microscope observation of cell status after 48 hours of drug action; assay type: cell-based, mouse; conditions: IN10018 5 µM; for cell status observed under a microscope: Etoposide 20 µM, Fig. 6; for cell status observed under a microscope (cell death / cell viability): Teniposide 4.8 µM
Method: CT26 cells (Institute of Cell Biology, Chinese Academy of Sciences) were cultured with RPMI-1640 (Shanghai Basalmedia, catalog number: L210KJ, batch number: F210916) + 10% FBS (Gibco, catalog number: 10099-141c, batch number: 2158737cp), and passaged twice. When the cells were in good condition, they were placed in a 24-well plate. After 24 hours of cell spreading, four groups were set up. The first group was the control group, in which culture medium was added; the second group was IN10018 at a concentration of 5µM; the third group was Etoposide (source: MCE, classification number: 33419-42-0, batch number: 113741) with a concentration of 20 µM; and the fourth group was a combination group of IN10018 (5 µM) and Etoposide (20 µM). The drugs were mixed and cultured in a 5 % CO2 incubator at 37°C for 48 hours.
After 48 hours of drug action, the cells were observed and photographed under a microscope. The photos were saved. Then the cells were collected for flow cytometry, and the cells were washed twice with flow buffer (PBS + 2% FBS). 0.5 µl of AF647 anti-Calreticulin antibody (abcam, catalog number: ab196159, batch number: CR33676773) was added to each well, and fully mixed. The cells were incubated at 4 °C for 20 minutes in the dark. After 20 minutes, the cells were washed twice with flow buffer (PBS + 2% FBS). Cell apoptosis detection kit (Beyotime, catalog number: CL062L, batch number: 021921210811) was used. 195 µl of Annexin-V-FITC binding solution was added, and the cells were gently mixed. 5 µl of annexin-V-FITC antibody was added, and the mixture was gently mixed. 10 µl of PI dye was added and gently mixed. The mixture was incubated at room temperature in the dark for 15 minutes, and then analyzed on a flow cytometer.
After 48 hours of drug action, the cells were photographed using a microscope, then trypsinized and collected for flow cytometry staining.

MDA-MB-231 cells [4] = experiment: Apoptosis by Annexin V flow cytometry after FAK siRNA silencing plus topoisomerase inhibitor; assay type: cell-based; conditions: FAK siRNA 50 nM for 24 hours, then 2 µM drug for 48 hours; FAK silencing group compared with control siRNA group; Fig. 1 / Fig. 3
Method: The siRNA technology was used in the in vitro assay to reduce the expression level of FAK, and combined with Etoposide for 48 hours; flow cytometry was used to detect apoptosis in control and FAK silenced cells.
Assay antibodies: recombinant Alexa Fluor® 647 fluorescent Anti-Calreticulin antibody (Abcam, ab196159), Annexin V apoptosis detection kit (Invitrogen, A35110).
MDA-MB-231 cells were transfected with control siRNA or FAK siRNA at a final concentration of 50 nM, respectively. After the transfection for 24 hours, the cells were treated with 2 µM of Etoposide for 48 hours. The cells were stained using Annexin V kit and detected by flow cytometry. The early and late apoptotic values were counted, compared with those of the DMSO control group, and plotted using Graphpad 8.0.
The siRNA technology was used in the in vitro assays to reduce the expression level of FAK, and combined with Teniposide for 48 hours; flow cytometry was used to detect apoptosis in control and FAK silenced cells. […]
MDA-MB-231 cells were transfected with control siRNA or FAK siRNA at a final concentration of 50 nM, respectively. […] The cells were stained using Annexin V kit and detected by flow cytometry. The early and late apoptosis values were counted, compared with those of the DMSO control group, and plotted using Graphpad 8.0.

[5] = system: MC38 mouse colorectal cancer cells; experiment: In vivo antitumor efficacy in subcutaneous allograft tumor model; parameters: species or system C57BL/6 mice
Method: Table 12: Animal groups and dosing regimens for in vivo efficacy assays
as §1
Colorectal cancer cells MC38 (from Nanjing Cobioer Biotechnology Co., Ltd., article number: CBP60825) were maintained and passaged by InxMed (Nanjing) Co., Ltd. Cells were cultured in monolayer in vitro under the following conditions: DMEM medium with 10% fetal bovine serum, in a 37°C, 5% CO2 incubator. Cells were routinely digested and passaged two to three times a week using trypsin-EDTA. When the cells were in the exponential growth phase and the adherent confluence reached 80%-90%, the cells were harvested, counted, and then inoculated.
0.1 mL of cell suspension containing 2×10^5 cells was subcutaneously inoculated on the right back of each mouse. When the tumor volume reached about 50 mm^3 (9th day after cell inoculation), the mice were randomly divided into groups and administered according to the tumor volume. Table 13: Test substance and control solvent preparation
The assay index was to examine whether the tumor growth was inhibited, delayed, or cured. Tumor diameters were measured three times a week using calipers. The tumor volume was calculated using the formula: V = 0.5 × a × b^2, where a and b represent the long and short diameters of the tumor, respectively.
The anti-tumor efficacy of the compound was evaluated by TGI (%), which reflected the tumor growth inhibition rate. Based on the tumor volume on the first day after grouping, the tumor growth inhibition rate TGI (%) was calculated according to the following formula: TGI (%) = [1 - (average tumor volume of an administration group - average tumor volume of the administration group at the beginning of treatment) / (average tumor volume of the solvent control group - average tumor volume of the solvent control group at the beginning of treatment)] × 100%.
Statistical analysis was based on tumor volume at the end of the assay using Prism Graphpad software. Comparisons between multiple groups were analyzed using Two-way ANOVA and Fisher's LSD test. A P-value of less than 0.05 was considered statistically significant.
After cell inoculation, tumor growth was observed every day. On the 9th day after inoculation, mice were grouped based on tumor volume. The average tumor volume at enrollment was approximately 50 mm^3.

CT26 cells [6] = experiment: CCK-8 cell proliferation inhibition; assay type: cell-based; conditions: Mus musculus, single drug, 72 hours, CCK8, OD450
Method: CT26 cells were cultured with RPMI-1640 (Shanghai Basalmedia, catalog number: L210KJ, batch number: F210916) + 10% FBS (Gibco, catalog number: 10099-141c, batch number: 2158737cp), and passaged twice. When the cells were in good condition, they were placed in a 96-well plate, 3000 cells/well. […] 10 drug concentrations were set. The first concentration was 30 µM, which was serially diluted 5-fold, and the last one was the control, with the drug concentration of 0. Each drug concentration was run in triplicate. At the same time, another group of cells was established with the same drug concentration as that in the above method.
10 µl of CCK8 detection reagent (Cellorlab, classification number: CX001M, batch number: 2571100) was added to each well, and the plate was incubated in a 5% CO2 incubator at 37 °C for 2-4 hours. Then the plate was read using microplate reader OD450 (chemiluminescence method). […]
CT26 cells were digested with trypsin, and then the cells were collected and counted. […]
After 72 hours of drug action, 10 µL of CCK-8 detection reagent was added to each well of the cell plate using a multi-channel pipette, and then the cell plate was incubated in a 37 °C, 5% CO2 incubator for another 4 hours. Finally, the absorbance of each well at 450 nm was measured using an ELISA reader. […]

Row | SMILES | Animal Survival [1] | release and exposure of Calreticulin (MDA-MB-231 cells [2]) | cell status observed under a microscope (CT26 cells [3]) | cell status observed under a microscope (cell death / cell viability) (CT26 cells [3]) | apoptosis (early and late apoptotic values) (MDA-MB-231 cells [4]) | Tumor volume on day 17 ([5]; 17th day after group administration, Etoposide 3 mg/kg PO QD (6 mg/kg from the 6th day), IN10018 25 mg/kg PO QD, PD-L1 antibody 5 mg/kg i.p. BIW, mean ± SD) [mm^3] | Tumor volume on day 0 ([5]; baseline on the day of grouping, mean ± SD, 6 mice per group) [mm^3] | TGI ([5]; day 17 vs. control group, Etoposide 3 mg/kg PO QD (6 mg/kg from the 6th day), IN10018 25 mg/kg PO QD, PD-L1 antibody 5 mg/kg i.p. BIW) [%] | inhibitory effect on tumor growth ([5]; in words, compared with the blank control group, whole dosing cycle, Fig. 11) | IC50 (CT26 cells [6]) [µM]
1 | COc1cc([C@@H]2c3cc4c(cc3[C@@H](O[C@@H]3O[C@@H]5CO[C@@H](C)O[C@H]5[C@H](O)[C@H]3O)[C@H]3COC(=O)[C@H]23)OCO4)cc(OC)c1O [Etoposide] | 5/6 | significantly enhanced | poor | obvious | significantly enhanced | 2420.2±1377.3 | 48.2 ± 10.2 | 9.5 | no inhibitory effect | 24.4
2 | COc1cc(C(=O)NC2CCN(C)CC2)c(F)cc1Nc1ncc(C(F)(F)F)c(Oc2cccc3c2C(=O)N(C)C3)n1 [IN10018] |  |  | good | better |  |  |  |  |  | 
3 | COc1cc([C@@H]2c3cc4c(cc3[C@@H](O[C@@H]3O[C@@H]5CO[C@@H](c6cccs6)O[C@H]5[C@H](O)[C@H]3O)[C@H]3COC(=O)[C@H]23)OCO4)cc(OC)c1O [Teniposide] |  | significantly enhanced |  |  | significantly enhanced |  |  |  |  | 0.818
